According to patent publication US12660819B2, “Herbicidal derivatives” (SYNGENTA CROP PROTECTION AG, priority 2020, dated 2026):

Assays:
Type in all cases: in vivo
Zea mays (ZEAMX) [1] = test: Pre-emergence Test (glasshouse, percentage damage to the plant); conditions: 1000 g/ha unless otherwise stated, five-point scale
[2] = test system: Abutilon theophrasti (ABUTH); test: as above; conditions: 1000 g/ha unless otherwise stated, five-point scale
[3] = test system: Ipomoea hederacea (IPOHE); test: as above; conditions: 1000 g/ha unless otherwise stated, five-point scale
[4] = test system: Echinochloa crus-galli (ECHCG); test: as above; conditions: 1000 g/ha unless otherwise stated, five-point scale
Setaria faberi (SETFA) [5] = test: Post-emergence Test (glasshouse, percentage damage to the plant); conditions: post-emergence spray, 1000 g/ha unless otherwise stated, evaluated after 13 days
How it was run: (§1)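 Scored 13 days after spraying as percentage plant damage in five bands (5=81–100%, 4=61–80%, 3=41–60%, 2=21–40%, 1=0–20%). Spray at 1000 g/ha unless stated, in acetone/water 50:50 plus 0.5% Tween 20, onto sown glasshouse pots (24/16 °C, 14 h light, 65% humidity).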

Zea mays (ZEAMX) [6] = test: as above; conditions: post-emergence spray, 1000 g/ha unless otherwise stated, evaluated after 13 days
How it was run: as §1

[7] = test system: Echinochloa crus-galli (ECHCG); test: as above; conditions: post-emergence spray, 1000 g/ha unless otherwise stated, evaluated after 13 days
How it was run: (§2)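 Seeds sown in pots in glasshouse (24/16 °C day/night, 14 h light, 65% humidity), then sprayed with compound at 1000 g/ha unless stated, from acetone/water 50:50 with 0.5% Tween 20. Damage assessed 13 days later on five-point scale (1=0–20% to 5=81–100%).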

[8] = test system: Abutilon theophrasti (ABUTH); test: as above; conditions: post-emergence spray, 1000 g/ha unless otherwise stated, evaluated after 13 days
How it was run: as §2

[9] = test system: Ipomoea hederacea (IPOHE); test: as above; conditions: post-emergence spray, 1000 g/ha unless otherwise stated, evaluated after 13 days
How it was run: as §1

[10] = test system: Amaranthus retoflexus (AMARE); test: as above; conditions: post-emergence spray, 1000 g/ha unless otherwise stated, evaluated after 13 days
How it was run: as §2

Setaria faberi (SETFA) [11] = test: Pre-emergence Test (glasshouse, percentage damage to the plant); conditions: 1000 g/ha unless otherwise stated, five-point scale
[12] = test system: Amaranthus retoflexus (AMARE); test: as above; conditions: 1000 g/ha unless otherwise stated, five-point scale

| SMILES | percentage damage to the plant, ZEAMX (Zea mays (ZEAMX) [1]) | percentage damage to the plant, ABUTH [2] | percentage damage to the plant, IPOHE [3] | percentage damage to the plant, ECHCG [4] | Post-emergence Test SETFA, percentage damage to the plant (five-point scale) (Setaria faberi (SETFA) [5]) | Post-emergence Test ZEAMX, percentage damage to the plant (five-point scale) (Zea mays (ZEAMX) [6]) | Post-emergence Test ECHCG, percentage damage to the plant (five-point scale) [7] | Post-emergence Test ABUTH, percentage damage to the plant (five-point scale) [8] | Post-emergence Test IPOHE, percentage damage to the plant (five-point scale) [9] | Post-emergence Test AMARE, percentage damage to the plant (five-point scale) [10] | percentage damage to the plant, SETFA (Setaria faberi (SETFA) [11]) | percentage damage to the plant, AMARE [12] |
| --- | --- | --- | --- | --- | --- | --- | --- | --- | --- | --- | --- | --- |
| CCn1c(C)c(-c2cc(Cl)c(OC)c(OC)c2)c(=O)c(C(=O)O)c1-c1ccc(Cl)c(Cl)c1 [Compound 87, 5-(3-chloro-4,5-dimethoxy-phenyl)-2-(3,4-dichlorophenyl)-1-ethyl-6-methyl-4-oxo-pyridine-3-carboxylic acid] | 1 (1=0-20%) | 1 (1=0-20%) | 1 (1=0-20%) | 1 (1=0-20%) | 3 (3=41-60%) | 1 (1=0-20%) | 2 (2=21-40%) | 3 (3=41-60%) | 2 (2=21-40%) | 2 (2=21-40%) | 4 (4=61-80%) | 1 (1=0-20%) |
| CCOc1cc(-c2c(C)n(CC)c(-c3ccc(Cl)c(Cl)c3)c(C(=O)O)c2=O)cc(C(F)(F)F)c1 [Compound 88, 2-(3,4-dichlorophenyl)-5-[3-ethoxy-5-(trifluoromethyl)phenyl]-1-ethyl-6-methyl-4-oxo-pyridine-3-carboxylic acid] | 1 (1=0-20%) | 1 (1=0-20%) | 1 (1=0-20%) | 1 (1=0-20%) | 2 (2=21-40%) | 1 (1=0-20%) | 2 (2=21-40%) | 2 (2=21-40%) | 1 (1=0-20%) | 2 (2=21-40%) | 4 (4=61-80%) | 1 (1=0-20%) |
| CCc1ccc(-c2c(C)n(CC)c(-c3ccc(Cl)c(Cl)c3)c(C(=O)O)c2=O)cc1 [Compound 89, 2-(3,4-dichlorophenyl)-1-ethyl-5-(4-ethylphenyl)-6-methyl-4-oxo-pyridine-3-carboxylic acid] | 1 (1=0-20%) | 1 (1=0-20%) | 1 (1=0-20%) | 1 (1=0-20%) | 1 (1=0-20%) | 1 (1=0-20%) | 1 (1=0-20%) | 3 (3=41-60%) | 3 (3=41-60%) | 1 (1=0-20%) | 4 (4=61-80%) | 1 (1=0-20%) |
| CCn1c(C)c(-c2ccc(C(C)=O)cc2)c(=O)c(C(=O)O)c1-c1ccc(Cl)c(Cl)c1 [Compound 90, 5-(4-acetylphenyl)-2-(3,4-dichlorophenyl)-1-ethyl-6-methyl-4-oxo-pyridine-3-carboxylic acid] | 1 (1=0-20%) | 1 (1=0-20%) | 1 (1=0-20%) | 1 (1=0-20%) | 2 (2=21-40%) | 1 (1=0-20%) | 1 (1=0-20%) | 1 (1=0-20%) | 2 (2=21-40%) | 1 (1=0-20%) | 3 (3=41-60%) | 1 (1=0-20%) |
